Laboratory results as given in ChEMBL document CHEMBL1140507, “Synthesis and evaluation of N-acylsulfonamide and N-acylsulfonylurea prodrugs of a prostacyclin receptor agonist” (Bioorg Med Chem, 2007).

How the values were obtained:
Liver microsomes [1] = assay: Hydrolytic rate in human hepatic microsomes assessed as 2-(4-((5,6-diphenylpyrazin-2-yl)(isopropyl)amino)butoxy)acetic acid production per mg of protein at 10 uM; format: ADME, Microsome
[2] = Hydrolytic rate in cynomolgus monkey hepatic microsomes assessed as 2-(4-((5,6-diphenylpyrazin-2-yl)(isopropyl)amino)butoxy)acetic acid production per mg of protein at 10 uM; format: ADME, Macaca fascicularis, Liver
Cynomolgus monkey [3] = assay: Tmax in cynomolgus monkey assessed as 2-(4-((5,6-diphenylpyrazin-2-yl)(isopropyl)amino)butoxy)acetic acid level at 1 mg/kg, po; format: ADME, organism-based, Macaca fascicularis; parameters: dose 1 mg/kg, route oral; settings: in vivo
Cynomolgus monkey [4] = assay: Cmax in cynomolgus monkey assessed as 2-(4-((5,6-diphenylpyrazin-2-yl)(isopropyl)amino)butoxy)acetic acid level at 1 mg/kg, po; format: ADME, organism-based, Macaca fascicularis; parameters: dose 1 mg/kg, route oral; settings: in vivo
Cynomolgus monkey [5] = assay: Half life in cynomolgus monkey assessed as 2-(4-((5,6-diphenylpyrazin-2-yl)(isopropyl)amino)butoxy)acetic acid at 1 mg/kg, po; format: ADME, organism-based, Macaca fascicularis; parameters: dose 1 mg/kg, route oral; settings: in vivo
Cynomolgus monkey [6] = assay: AUC (0 to 24 hrs) in cynomolgus monkey assessed as 2-(4-((5,6-diphenylpyrazin-2-yl)(isopropyl)amino)butoxy)acetic acid at 1 mg/kg, po; format: ADME, organism-based, Macaca fascicularis, Plasma; parameters: time < 24 hr, dose 1 mg/kg, route oral; settings: in vivo
[7] = Hydrolytic rate in cynomolgus monkey hepatic microsomes assessed as 2-(4-((5,6-diphenylpyrazin-2-yl)(isopropyl)amino)butoxy)acetic acid production in presence of 1000 uM PMSF relative to control; format: ADME, Macaca fascicularis, Liver; parameters: scale not given: the % may be the effect or the level left
[8] = Hydrolytic rate in Beagle dog hepatic microsomes assessed as 2-(4-((5,6-diphenylpyrazin-2-yl)(isopropyl)amino)butoxy)acetic acid production per mg of protein at 10 uM; format: ADME, Canis lupus familiaris, Liver
Liver microsomes [9] = assay: Hydrolytic rate in Sprague-Dawley rat hepatic microsomes assessed as 2-(4-((5,6-diphenylpyrazin-2-yl)(isopropyl)amino)butoxy)acetic acid production per mg of protein at 10 uM; format: ADME, Microsome
[10] = Hydrolytic rate in cynomolgus monkey hepatic microsomes assessed as 2-(4-((5,6-diphenylpyrazin-2-yl)(isopropyl)amino)butoxy)acetic acid production in presence of 10 uM PMSF relative to control; format: ADME, Macaca fascicularis, Liver; parameters: scale not given: the % may be the effect or the level left
[11] = Hydrolytic rate in cynomolgus monkey hepatic microsomes assessed as 2-(4-((5,6-diphenylpyrazin-2-yl)(isopropyl)amino)butoxy)acetic acid production in presence of 100 uM PMSF relative to control; format: ADME, Macaca fascicularis, Liver; parameters: scale not given: the % may be the effect or the level left
Plasma = assay: Hydrolytic rate in Sprague-Dawley rat plasma assessed as 2-(4-((5,6-diphenylpyrazin-2-yl)(isopropyl)amino)butoxy)acetic acid production per mg of protein at 10 uM; format: ADME, cell-free

| SMILES | Activity (Liver microsomes [1]) [nmol/min] | Activity [2] [nmol/min] | Tmax (Cynomolgus monkey [3]) [h] | Cmax (Cynomolgus monkey [4]) [ng/mL] | t1/2 (Cynomolgus monkey [5]) [h] | AUC (Cynomolgus monkey [6]) [ng·h/mL] | Activity [7] [%] | Activity [8] [nmol/min] | Activity (Liver microsomes [9]) [nmol/min] | Activity [10] [%] | Activity [11] [%] | Activity (Plasma) [nmol/min] |
| --- | --- | --- | --- | --- | --- | --- | --- | --- | --- | --- | --- | --- |
| CC(C)N(CCCCOCC(=O)NS(=O)(=O)c1ccccc1)c1cnc(-c2ccccc2)c(-c2ccccc2)n1 | 0.017 | 0.711 | – | – | – | – | – | – | – | – | – | – |
| CC(C)N(CCCCOCC(=O)NS(=O)(=O)C(C)C)c1cnc(-c2ccccc2)c(-c2ccccc2)n1 | 0.012 | 0.152 | 10 | 13 | 14.5 | 170 | – | – | – | – | – | – |
| CC(C)N(CCCCOCC(=O)NS(N)(=O)=O)c1cnc(-c2ccccc2)c(-c2ccccc2)n1 | 0.03 | 0.112 | 6 | 20 | – | 374 | – | – | – | – | – | – |
| CC(C)N(CCCCOCC(=O)NS(=O)(=O)N1CCOCC1)c1cnc(-c2ccccc2)c(-c2ccccc2)n1 | 0.015 | 0.208 | – | – | – | – | – | – | – | – | – | – |
| CC(C)N(CCCCOCC(=O)NS(=O)(=O)C(F)(F)F)c1cnc(-c2ccccc2)c(-c2ccccc2)n1 | 0.024 | 0.06 | 4 | 31 | 8.5 | 308 | – | – | – | – | – | – |
| CC(C)N(CCCCOCC(=O)NS(=O)(=O)c1cccs1)c1cnc(-c2ccccc2)c(-c2ccccc2)n1 | 0.008 | 0.468 | – | – | – | – | – | – | – | – | – | – |
| CC(C)N(CCCCOCC(=O)NS(C)(=O)=O)c1cnc(-c2ccccc2)c(-c2ccccc2)n1 [SELEXIPAG] | 0.019 | 0.057 | 14 | 35 | 10.7 | 859 | 0 | 0.03 | 0.09 | 21.4 | 0 | 0.5 |
